According to ChEMBL document CHEMBL3352132, “Synthesis, screening and docking of small heterocycles as glycogen phosphorylase inhibitors” (Eur J Med Chem, 2014):
One block for each compound: values may come before it. Activity calls are given as the source filed them. No cut-off for these calls is given here.

Legend:
[1] = molecular target: T1, Glycogen phosphorylase, muscle form (Oryctolagus cuniculus) (UniProt P00489); assay: Inhibition of rabbit muscle glycogen phosphorylase a assessed as inhibition of release of phosphate from glucose-1-phosphate at 111 mM after 30 mins by spectrophotometry
T1 sequence (whole entry): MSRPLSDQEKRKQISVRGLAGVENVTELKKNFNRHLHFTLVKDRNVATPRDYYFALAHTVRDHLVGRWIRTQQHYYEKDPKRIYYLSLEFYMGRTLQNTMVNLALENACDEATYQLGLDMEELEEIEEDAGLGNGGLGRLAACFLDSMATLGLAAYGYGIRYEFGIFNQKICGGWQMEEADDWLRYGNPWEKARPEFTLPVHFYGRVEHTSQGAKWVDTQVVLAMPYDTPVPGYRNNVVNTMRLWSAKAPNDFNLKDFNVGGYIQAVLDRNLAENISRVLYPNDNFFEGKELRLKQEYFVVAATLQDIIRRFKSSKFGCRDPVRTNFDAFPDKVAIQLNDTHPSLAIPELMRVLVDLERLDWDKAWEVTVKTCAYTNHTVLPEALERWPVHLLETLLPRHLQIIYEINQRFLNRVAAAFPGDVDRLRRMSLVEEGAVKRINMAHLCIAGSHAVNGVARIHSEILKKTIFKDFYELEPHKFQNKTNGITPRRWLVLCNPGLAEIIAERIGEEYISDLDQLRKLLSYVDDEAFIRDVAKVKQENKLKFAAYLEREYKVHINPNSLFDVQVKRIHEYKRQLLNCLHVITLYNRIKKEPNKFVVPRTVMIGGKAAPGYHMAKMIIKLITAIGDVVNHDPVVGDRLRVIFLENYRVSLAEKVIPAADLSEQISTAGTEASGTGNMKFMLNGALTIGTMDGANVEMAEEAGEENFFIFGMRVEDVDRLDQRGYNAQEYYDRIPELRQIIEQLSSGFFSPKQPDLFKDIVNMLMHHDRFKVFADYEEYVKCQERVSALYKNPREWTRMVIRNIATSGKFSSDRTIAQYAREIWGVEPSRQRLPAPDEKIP

[2] = molecular target: T2, Glycogen phosphorylase, muscle form (Oryctolagus cuniculus, UniProt P00489); assay: (§1) Inhibition of rabbit muscle glycogen phosphorylase a assessed as inhibition of release of phosphate from glucose-1-phosphate after 30 mins by spectrophotometry
T2 sequence (P00489 whole entry): T1 sequence (whole entry)

[3] = molecular target: T1, Glycogen phosphorylase, muscle form (Oryctolagus cuniculus); assay: Inhibition of rabbit muscle glycogen phosphorylase a assessed as inhibition of release of phosphate from glucose-1-phosphate at 222 mM after 30 mins by spectrophotometry
[4] = molecular target: T1, Glycogen phosphorylase, muscle form (Oryctolagus cuniculus); assay: as §1
[5] = molecular target: T1, Glycogen phosphorylase, muscle form (Oryctolagus cuniculus); assay: Inhibition of rabbit muscle glycogen phosphorylase a assessed as inhibition of release of phosphate from glucose-1-phosphate at 56 mM after 30 mins by spectrophotometry
[6] = molecular target: T1, Glycogen phosphorylase, muscle form (Oryctolagus cuniculus); assay: Inhibition of rabbit muscle glycogen phosphorylase a assessed as inhibition of release of phosphate from glucose-1-phosphate at 22 mM after 30 mins by spectrophotometry

Compound: CC(C)CC(N)C(=O)N1CCOCC1 (stereo unspecified)
IC50 [2]: 6.5 mM

Compound: c1ccc(C2=NCCCCO2)cc1
IC50 [2]: 1.4 mM

Compound: CC(C)(C)OC(=O)N1CCCN=C1c1ccccc1
IC50 [2]: 1.1 mM

Compound: c1ccc(C2=NCCCCN2)cc1
IC50 [2]: 3 mM

Compound: c1ccc(C2=NCCCN2)cc1
inhibition [3]: 99%

Compound: NCCCCC(N)C(=O)N1CCOCC1 (stereo unspecified)
Activity [4]: inactive

Compound: O=C(NC(Cc1ccccc1)C(=O)N1CCOCC1)OCc1ccccc1 (stereo unspecified)
Activity [4]: inactive

Compound: CC(C)CC(NC(=O)OCc1ccccc1)C(=O)N1CCOCC1 (stereo unspecified)
Activity [4]: inactive

Compound: CC(C)N1CCCN=C1c1ccccc1
IC50 [2]: 7.2 mM

Compound: c1ccc(C2=NCCS2)cc1
inhibition [6]: 39%

Now from value to compound:

inhibition [1]: 12%
Compound: CC(C)(C)OC(=O)NC(CCC(=O)O)C(=O)N1CCOCC1 (stereo unspecified)

inhibition [3]: 25%
Compound: NC(CCC(=O)O)C(=O)N1CCOCC1 (stereo unspecified)

IC50 [2]: 7.8 mM
Compound: c1ccc(C2=NC3CCCCC3N2)cc1 (stereo unspecified)

inhibition [1]: 39%
Compound: c1ccc(C2=NCCCO2)cc1

IC50 [2]: 0.025 mM
Compound: COC(=O)[C@@H]1CSC(c2ccccc2)=N1

inhibition [5]: 94%
Compound: O=[N+]([O-])c1ccc(C2=NCCO2)cc1

IC50 [2]: 1.2 mM
Compound: CC1(C)CN=C(c2ccccc2)NC1

IC50 [2]: 23.9 mM
Compound: c1ccc(C2=NCCO2)cc1

inhibition [3]: 20%
Compound: NC(Cc1ccccc1)C(=O)N1CCOCC1 (stereo unspecified)

inhibition [1]: 78%
Compound: CC1CN=C(c2ccccc2)O1 (stereo unspecified)

inhibition [3]: 5%
Compound: O=C(NCCCCC(NC(=O)OCc1ccccc1)C(=O)N1CCOCC1)OCc1ccccc1 (stereo unspecified)
